Laboratory results: patent US20240317721A1, “PYRAZOLYL DERIVATIVES AS INHIBITORS OF THE KRAS MUTANT PROTEIN” (NOVARTIS AG, priority 2021, published 2024)

Target: KRasG12C (M1-K169, biotinylated on the N-terminus) (Homo sapiens (Human), UniProt P01116, G12C)
Experiment: Covalent competition assay: scintillation proximity assay (SPA) quantifying covalent modification of KRASG12C
Assay type: binding
Settings: competition with radiolabeled covalent probe (Compound B/Compound A), 2 hours incubation, 10 nM KRasG12C
Outline: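 Test compounds compete with a radiolabeled covalent probe for modification of N-terminally biotinylated KRasG12C(M1-K169):GDP, final 10 nM protein, 25 nM radio-ligand, 475 nM unlabelled ligand, 2 h with agitation in 20 mM Tris-HCl pH 7.5, 150 mM NaCl, 0.1 mM MgCl2, 0.01% Tween-20.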

Point of comparison: `C=CC(=O)N1CC2(CC(n3nc(N4CCC(N(C)C5COC5)CC45CCC5)c(-c4c(Cl)c(C)cc5[nH]nc(N)c45)c3C)C2)C1` (single isomer, unassigned) [Example 116a, 1-(6-(4-(3-amino-5-chloro-6-methyl-1H-indazol-4-yl)-5-methyl-3-(8-(methyl(oxetan-3-yl)amino)-5-azaspiro[3.5]nonan-5-yl)-1H-pyrazol-1-yl)-2-azaspiro[3.3]heptan-2-yl)prop-2-en-1-one], IC50 205 nM. Against it:
- C=CC(=O)N1CC2(CC(n3nc(N4CCC(N(C)C(=O)COC)CC4(C)C)c(-c4c(Cl)c(C)cc5[nH]ncc45)c3C)C2)C1 (single isomer, unassigned) [Example 96b, N-(1-(1-(2-acryloyl-2-azaspiro[3.3]heptan-6-yl)-4-(5-chloro-6-methyl-1H-indazol-4-yl)-5-methyl-1H-pyrazol-3-yl)-2,2-dimethylpiperidin-4-yl)-2-methoxy-N-methylacetamide] — 19-fold lower, 11 nM
- C=CC(=O)N1CC2(CC(n3nc(N4CCn5nccc5C4(C)C)c(-c4c(Cl)c(C)cc5[nH]ncc45)c3C)C2)C1 (single isomer, unassigned) [Example 101a, 1-(6-(4-(5-chloro-6-methyl-1H-indazol-4-yl)-3-(4,4-dimethyl-6,7-dihydropyrazolo[1,5-a]pyrazin-5(4H)-yl)-5-methyl-1H-pyrazol-1-yl)-2-azaspiro[3.3]heptan-2-yl)prop-2-en-1-one] — higher, > 50000 nM
- C=CC(=O)N1CC2(CC(n3nc(N4CC[C@@H](CN5C6CCC5CN(C(C)=O)C6)CC4(C)C)c(-c4c(Cl)c(Cl)cc5[nH]ncc45)c3C)C2)C1 (single isomer, unassigned) [Example 318b] — 29-fold lower, 7 nM
- C=CC(=O)N1CC2(CC(n3nc(N4CC[C@@H](CN5CC6(CCS(=O)(=O)C6)C5)CC4(C)C)c(-c4c(Cl)c(Cl)cc5[nH]ncc45)c3C)C2)C1 (single isomer, unassigned) [Example 254b] — 26-fold lower, 8 nM
- C=CC(=O)N1CC2(CCC(n3nc(N4CCN(C(C)=O)CC4)c(-c4c(Cl)ccc5[nH]ncc45)c3C)C2)C1 (single isomer, unassigned) [Example 53b, 1-(6-(3-(4-acetylpiperazin-1-yl)-4-(5-chloro-1H-indazol-4-yl)-5-methyl-1H-pyrazol-1-yl)-2-azaspiro[3.4]octan-2-yl)prop-2-en-1-one] — higher, > 50000 nM
- C=CC(=O)N1CC2(CC(n3nc(N4CCN(C(C)=O)CC45CCC5)c(-c4c(Cl)c(C)cc5[nH]ncc45)c3C)C2)C1 (single isomer, unassigned) [Example 21b, 1-(6-(3-(8-acetyl-5,8-diazaspiro[3.5]nonan-5-yl)-4-(5-chloro-6-methyl-1H-indazol-4-yl)-5-methyl-1H-pyrazol-1-yl)-2-azaspiro[3.3]heptan-2-yl)prop-2-en-1-one] — 12-fold lower, 17 nM
- C=CC(=O)N1CC2(CC(n3nc(N4CCC5(CN(C)CCO5)CC4(C)C)c(-c4c(Cl)c(C)cc5[nH]ncc45)c3C)C2)C1 (single isomer, unassigned) [Example 207a, 1-(6-(4-(5-chloro-6-methyl-1H-indazol-4-yl)-5-methyl-3-(4,8,8-trimethyl-1-oxa-4,9-diazaspiro[5.5]undecan-9-yl)-1H-pyrazol-1-yl)-2-azaspiro[3.3]heptan-2-yl)prop-2-en-1-one] — higher, > 5000 nM
- C=CC(=O)N1CC2(CC(n3nc(N4CC[C@@H](CN5CCN6C(=O)N(C)CC6C5)CC4(C)C)c(-c4c(Cl)c(Cl)cc5[nH]ncc45)c3C)C2)C1 (single isomer, unassigned) [Example 263b] — 26-fold lower, 8 nM
- C=CC(=O)N1CC2(CC(n3nc(N4CCN(C(C)=O)C5(CCC5)C4)c(-c4c(Cl)c(C)cc5[nH]ncc45)c3C)C2)C1 (single isomer, unassigned) [Example 20a, 1-(6-(3-(5-acetyl-5,8-diazaspiro[3.5]nonan-8-yl)-4-(5-chloro-6-methyl-1H-indazol-4-yl)-5-methyl-1H-pyrazol-1-yl)-2-azaspiro[3.3]heptan-2-yl)prop-2-en-1-one] — within 1.5-fold, 301 nM
- C=CC(=O)N1CC2(CC(n3nc(N4CCC(N5CC(OC)C5)CC4(C)C)c(-c4c(Cl)c(Cl)cc5[nH]ncc45)c3C)C2)C1 (single isomer, unassigned) [Example 209b, 1-(6-(4-(5,6-dichloro-1H-indazol-4-yl)-3-(4-(3-methoxyazetidin-1-yl)-2,2-dimethylpiperidin-1-yl)-5-methyl-1H-pyrazol-1-yl)-2-azaspiro[3.3]heptan-2-yl)prop-2-en-1-one] — 17-fold lower, 12 nM
- C=CC(=O)N1CC2(CC(n3nc(N4CCN(C(=O)C(F)F)CC4(C)C)c(-c4c(Cl)c(C)cc5[nH]ncc45)c3C)C2)C1 (single isomer, unassigned) [Example 128a, 1-(6-(4-(5-chloro-6-methyl-1H-indazol-4-yl)-3-(4-(2,2-difluoroacetyl)-2,2-dimethylpiperazin-1-yl)-5-methyl-1H-pyrazol-1-yl)-2-azaspiro[3.3]heptan-2-yl)prop-2-en-1-one] — higher, > 50000 nM
- C=CC(=O)N1CC2(CC(n3nc(N4CCC(O)CC4(C)C)c(-c4c(Cl)c(C)cc5[nH]ncc45)c3C)C2)C1 (single isomer, unassigned) [Example 30a, 1-(6-(4-(5-chloro-6-methyl-1H-indazol-4-yl)-3-(4-hydroxy-2,2-dimethylpiperidin-1-yl)-5-methyl-1H-pyrazol-1-yl)-2-azaspiro[3.3]heptan-2-yl)prop-2-en-1-one] — 2.5-fold higher, 514 nM
- C=CC(=O)N1CC2(CC(n3nc(N4CC[C@@H](CN5CC6(CCCN6C6COC6)C5)CC4(C)C)c(-c4c(Cl)c(Cl)cc5[nH]ncc45)c3C)C2)C1 (single isomer, unassigned) [Example 272a] — higher, > 5000 nM
- C=CC(=O)N1CC2(CC(n3nc(N4CCC(CN5CCOCC5)CC4(C)CC)c(-c4c(Cl)c(C)cc5[nH]ncc45)c3C)C2)C1 (single isomer, unassigned) [Example 222a, 1-(6-(4-(5-chloro-6-methyl-1H-indazol-4-yl)-3-(2-ethyl-2-methyl-4-(morpholinomethyl)piperidin-1-yl)-5-methyl-1H-pyrazol-1-yl)-2-azaspiro[3.3]heptan-2-yl)prop-2-en-1-one] — 5.4-fold higher, 1100 nM
- C=CC(=O)N1CC2(CC(n3nc(N4CC[C@@H](CN5CCN(C6COC6)C6COCC65)CC4(C)C)c(-c4c(Cl)c(Cl)cc5[nH]ncc45)c3C)C2)C1 (single isomer, unassigned) [Example 281b, 1-(6-(4-(5,6-dichloro-1H-indazol-4-yl)-3-((R)-2,2-dimethyl-4-(((4aS*,7aR*)-4-(oxetan-3-yl)hexahydrofuro[3,4-b]pyrazin-1(2H)-yl)methyl)piperidin-1-yl)-5-methyl-1H-pyrazol-1-yl)-2-azaspiro[3.3]heptan-2-yl)prop-2-en-1-one] — lower, < 5 nM
- C=CC(=O)N1CC2(CC(n3nc(N4CCC5(CN(C6COC6)C5)CC45CCC5)c(-c4c(Cl)c(C)cc5[nH]ncc45)c3C)C2)C1 (single isomer, unassigned) [Example 93a, 1-(6-(4-(5-chloro-6-methyl-1H-indazol-4-yl)-5-methyl-3-(2-(oxetan-3-yl)-2,10-diazadispiro[3.1.3^6.3^4]dodecan-10-yl)-1H-pyrazol-1-yl)-2-azaspiro[3.3]heptan-2-yl)prop-2-en-1-one] — higher, > 5000 nM
